Measurements: patent publication US7268154B2, “Substituted triazole compounds” (Hoffman-La Roche Inc., priority 2005, dated 2007)

Target: T1, NK-3 receptor (HEK293 stably expressing NK3) (Homo sapiens, UniProt P29371)
T1 construct: expressed in transfected cells
T1 sequence (P29371 1-465): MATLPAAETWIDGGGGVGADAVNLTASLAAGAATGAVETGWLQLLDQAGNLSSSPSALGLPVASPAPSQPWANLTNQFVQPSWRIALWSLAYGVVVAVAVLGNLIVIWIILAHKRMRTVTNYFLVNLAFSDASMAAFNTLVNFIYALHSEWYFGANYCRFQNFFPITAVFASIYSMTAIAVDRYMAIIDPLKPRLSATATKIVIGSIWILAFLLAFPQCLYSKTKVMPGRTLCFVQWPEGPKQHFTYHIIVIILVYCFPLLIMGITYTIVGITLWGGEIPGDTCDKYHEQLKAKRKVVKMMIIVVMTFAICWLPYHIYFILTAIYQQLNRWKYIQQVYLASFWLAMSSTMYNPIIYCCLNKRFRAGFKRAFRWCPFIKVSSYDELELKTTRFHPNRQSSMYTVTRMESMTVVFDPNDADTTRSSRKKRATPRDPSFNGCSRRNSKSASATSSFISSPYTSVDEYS
Test: Calcium mobilization assay (FLIPR): enhancement of the Neurokinin B agonist response
Format: cell-based
Settings: for EC50: agonist Neurokinin B with or without enhancer, Fluo-4 fluorescence, read-out: EC50 (efficacy as allosteric positive modulator of NK-3 receptor); for fold increase of the Neurokinin B agonistic effect: value in parentheses after EC50
Description: Calcium mobilization assay: HEK293 stably expressing NK3 were seeded at a density of 50,000 cells into poly-D-lysine coated 96-well blackwall, clear-bottom microtiter plates (Becton Dickinson Labware, Bedford, Mass.). One day later, the medium was removed, and 100 μl loading medium [HBSS without phenol red, supplemented with 20 mM HEPES-acid, and 2 μM Fluo-4AM solubilized in 0.5 mM Pluronic F-127/DMSO (Molecular Probes, Leiden, The Netherlands)] was added. Cells were loaded for 1 h at 37° C., washed twice with 150 μl assay buffer (loading buffer without Fluo-4 AM), and then 260 μl assay buffer was added. Cells were further pre-incubated at room temperature before adding the agonist Neurokinin B with or without enhancer in 50 μl assay buffer and then measured on a T-channel fluorimetric imaging plate reader (FLIPR, Molecular Devices, Sunnyvale, Calif.). Maximum change in fluorescence over baseline was used to determine agonist response.
The efficacy as allosteric positive modulators of neurokinin 3 (NK-3) receptors is given in the table below as EC50 and fold increase of the Neurokinin B agonistic effect. The EC50 of preferred compounds is <5.0 μM.

Row | SMILES | EC50 [µM] | fold increase of the Neurokinin B agonistic effect [fold]
1 | O=C(N[C@H]1CC[C@@H](n2cc(C(=O)N3CCCC3)nn2)CC1)c1cccc(-c2ccc(F)cc2)c1 [Example 3, 4′-Fluoro-biphenyl-3-carboxylic acid {cis-4-[4-(pyrrolidine-1-carbonyl)-[1,2,3]triazol-1-yl]-cyclohexyl}-amide] | 0.86 | 1.6
2 | COc1ccccc1C(=O)N[C@H]1CC[C@@H](n2cc(C(=O)N3CCCC3)nn2)CC1 [Example 6, 2-Methoxy-N-{cis-4-[4-(pyrrolidine-1-carbonyl)-[1,2,3]triazol-1-yl]-cyclohexyl}-benzamide] | 4.2 | 3.2
3 | O=C(Cc1c(F)cccc1Cl)N[C@H]1CC[C@@H](n2cc(C(=O)Nc3ccccc3)nn2)CC1 [Example 19, 1-{cis-4-[2-(2-Chloro-6-fluoro-phenyl)-acetylamino]-cyclohexyl}-1H-[1,2,3]triazole-4-carboxylic acid phenylamide] | 1.8 | 1.6
4 | COc1ccc(C(=O)N[C@H]2CC[C@@H](n3cc(C(=O)N4CCCC4)nn3)CC2)cc1OC [Example 7, 3,4-Dimethoxy-N-{cis-4-[4-(pyrrolidine-1-carbonyl)-[1,2,3]triazol-1-yl]-cyclohexyl}-benzamide] | 4.5 | 5.6
5 | Cc1cccc(-c2cccc(C(=O)N[C@H]3CC[C@@H](n4cc(C(=O)N5CCCC5)nn4)CC3)c2)c1 [Example 2, 3′-Methyl-biphenyl-3-carboxylic acid {cis-4-[4-(pyrrolidine-1-carbonyl)-[1,2,3]triazol-1-yl]-cyclohexyl}-amide] | 0.2 | 1.5
6 | Cc1cc(Cl)ccc1OC(C)C(=O)N[C@H]1CC[C@@H](n2cc(C(=O)N3CCCC3)nn2)CC1 (relative stereo) [Example 4, 2-(4-Chloro-2-methyl-phenoxy)-N-{cis-4-[4-(pyrrolidine-1-carbonyl)-[1,2,3]triazol-1-yl]-cyclohexyl}-propionamide] | 0.56 | 1.7

Next, values leading:

Row | EC50 [µM] | fold increase of the Neurokinin B agonistic effect [fold] | SMILES
7 | 2.3 | 2.2 | O=C(N[C@H]1CC[C@@H](n2cc(C(=O)N3CCCC3)nn2)CC1)c1ccc(Cl)cc1 [Example 9, 4-Chloro-N-{cis-4-[4-(pyrrolidine-1-carbonyl)-[1,2,3]triazol-1-yl]-cyclohexyl}-benzamide]
8 | 0.77 | 1.8 | O=C(c1cn([C@H]2CC[C@@H](NC(=O)C3(c4c(F)cccc4Cl)CCCC3)CC2)nn1)N1CCCC1 [Example 17, 1-(2-Chloro-6-fluoro-phenyl)-cyclopentanecarboxylic acid {cis-4-[4-(pyrrolidine-1-carbonyl)-[1,2,3]triazol-1-yl]-cyclohexyl}-amide]
9 | 3.7 | 2.3 | O=C(Cc1c(F)cccc1Cl)N[C@H]1CC[C@@H](n2cc(C(=O)N3CCCC3)nn2)CC1 [Example 1, 2-(2-Chloro-6-fluoro-phenyl)-N-{cis-4-[4-(pyrrolidine-1-carbonyl)-[1,2,3]triazol-1-yl]-cyclohexyl}-acetamide]
